According to patent publication US10175256B2, “Compositions and methods utilizing lysophosphatidylcholine scaffolds” (National University Of Singapore, priority 2013, dated 2019):
Where “and” joins values, the source holds several entries; their conditions need not be identical. Equal values may be shown once.

The compounds below were run on mouse Mfsd2a (assay: Cell-based free fatty acid transport/uptake in Mfsd2a expressing HEK293 cells (mass spectrometry, TLC; Table 1)). Conditions: mock HEK293 cells incubated with 100 uM Arachidonic fatty acid/BSA complex overnight; MS; replicate columns.
Procedure: (§1) FIG. 12. […] Std: free [^14C]-DHA. b. TLC analysis of phospholipids and neutral lipids of HEK293 cells transfected with mouse Mfsd2a and mutants after overnight incubation with 100 μM [^14C]-oleate. TLC protocol used was described in Methods. PC: phosphatidylcholine, PE: phosphatidylethanolamine, TAG: triglyceride, CE: cholesteryl ester.
(§2) For tissue lipid analysis, brain, liver, and heart of female WT and KO mice with age of 7-8 weeks born to HET mothers, and brains from e18.5 embryos were collected and immediately frozen with liquid nitrogen until extraction. Lipid extraction was followed by chloroform/methanol method. For cell-based free fatty acid transport, lipids from HEK293 cells expressing mouse Mfsd2a and mock controls after overnight treatment with 100 μM docosahexaenoic, arachidonic, eicosapentaenoic, alpha-linolenic, linoleic, oleic, palmitic acids in BSA complex were extracted using HIP buffer (hexane:iso-propanol 3:2, per volume) and dried under N2 gas. Phospholipid species were measured by high performance liquid chromatography (HPLC) 1100 system (Agilent) coupled with an Triple Quadrupole/Ion Trap mass spectrometer (4000Qtrap, Applied Biosystem). Levels of individual phospholipid species were analyzed as described previously and quantified using spiked internal standards that includes PC-14:0/14:0, PE-14:0/14:0, PS-14:0/14:0 (Avanti Polar Lipids, Alabaster, Ala., USA), and dioctanoyl PI (Echelon Biosciences, Inc., Salt Lake City, Utah, USA).
For `CCCCCCCCCCCCCCCCCCOC[C@@H](O)COP(=O)([O-])OCC[N+](C)(C)C` [LysoPC18:0e], the “Amount of each lipid species, mol percent in total phospholipid analysed” value was 0.00137 mol percent and 0.002231 mol percent and 0.001637 mol percent.
`CCCCCCCCCCCCCCCC(=O)OC[C@@H](O)COP(=O)(O)OCCN` [LysoPE16:0] was tested, and the “Amount of each lipid species, mol percent in total phospholipid analysed” value was 0.08991 mol percent and 0.08319 mol percent and 0.0827 mol percent.
With `CCCCCCCCCCCCCC/C=C\OC[C@@H](O)COP(=O)(O)OCCN` [LysoPE16:0p] the “Amount of each lipid species, mol percent in total phospholipid analysed” value was 3.439 mol percent and 2.895 mol percent and 2.928 mol percent.

Same assay, conditions: mock HEK293 cells; 100 uM Docosahexaenoic acid/BSA complex overnight; MS; replicate columns
With `CCCCCCCCCCCCCCCCCCOC[C@@H](O)COP(=O)([O-])OCC[N+](C)(C)C` [LysoPC18:0e] the “Amount of each lipid species normalized to internal standard, mol percent in total phospholipid analysed” value was 0.002177 mol percent and 0.002156 mol percent and 0.002215 mol percent.
`CCCCCCCCCCCCCCCC(=O)OC[C@@H](O)COP(=O)(O)OCCN` [LysoPE16:0] was tested, and the “Amount of each lipid species normalized to internal standard, mol percent in total phospholipid analysed” value was 0.06318 mol percent and 0.083 mol percent and 0.06994 mol percent.

Same assay, conditions: mock HEK293 cells; 100 uM Eicosapentaenoic acid/BSA complex overnight; MS; replicate columns
In the case of `CCCCCCCCCCCCCCCCCCOC[C@@H](O)COP(=O)([O-])OCC[N+](C)(C)C` [LysoPC18:0e], the “Amount of each lipid species normalized to internal standard, mol percent in total phospholipid analysed” value is reported as 0.001609 mol percent and 0.002109 mol percent and 0.001671 mol percent.
In the case of `CCCCCCCCCCCCCCCC(=O)OC[C@@H](O)COP(=O)(O)OCCN` [LysoPE16:0], the “Amount of each lipid species normalized to internal standard, mol percent in total phospholipid analysed” value is reported as 0.06426 mol percent and 0.1796 mol percent and 0.1079 mol percent.

Same assay, conditions: mock HEK293 cells; 100 uM Oleic fatty acid/BSA complex overnight; MS; replicate columns
`CCCCCCCCCCCCCCCCCCOC[C@@H](O)COP(=O)([O-])OCC[N+](C)(C)C` [LysoPC18:0e] was tested, and the “Amount of lipid species, mol percent in total phospholipid analysed” value (“Amount of lipid species, mol percent” for short) was 0.001802 mol percent and 0.00157 mol percent and 0.001773 mol percent.
In the case of `CCCCCCCCCCCCCCCC(=O)OC[C@@H](O)COP(=O)(O)OCCN` [LysoPE16:0], the “Amount of lipid species, mol percent” value is reported as 0.056 mol percent and 0.03411 mol percent and 0.06706 mol percent.

Each compound was assayed against T1, mouse Mfsd2a (Mus musculus, UniProt Q9DA75) in the same assay as above. Conditions: Mfsd2a expressing HEK293 cells incubated with 100 uM Arachidonic fatty acid/BSA complex overnight; MS; replicate columns.
T1 construct: expressed in transfected cells; host or cells: HEK293
T1 sequence (Q9DA75 1-534): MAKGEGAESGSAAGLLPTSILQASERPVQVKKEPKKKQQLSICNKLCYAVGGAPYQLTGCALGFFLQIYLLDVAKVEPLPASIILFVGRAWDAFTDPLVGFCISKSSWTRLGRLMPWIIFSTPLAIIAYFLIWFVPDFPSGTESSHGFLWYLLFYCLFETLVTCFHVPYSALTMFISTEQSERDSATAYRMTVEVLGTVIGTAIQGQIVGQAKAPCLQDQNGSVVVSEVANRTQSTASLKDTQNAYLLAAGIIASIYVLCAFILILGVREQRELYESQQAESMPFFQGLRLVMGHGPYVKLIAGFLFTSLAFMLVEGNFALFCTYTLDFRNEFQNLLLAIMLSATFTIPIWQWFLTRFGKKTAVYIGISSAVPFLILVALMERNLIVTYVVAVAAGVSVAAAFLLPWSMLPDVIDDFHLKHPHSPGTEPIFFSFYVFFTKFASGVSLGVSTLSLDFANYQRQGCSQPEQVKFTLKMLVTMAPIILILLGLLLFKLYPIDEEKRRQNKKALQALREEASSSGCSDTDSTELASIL
Procedure: as §1, §2
For `CCCCCCCCCCCCCCCCCCOC[C@@H](O)COP(=O)([O-])OCC[N+](C)(C)C` [LysoPC18:0e], the “Amount of each lipid species, mol percent in total phospholipid analysed” value was 0.001403 mol percent and 0.001832 mol percent and 0.001957 mol percent and 0.00156 mol percent.
In the case of `CCCCCCCCCCCCCCCC(=O)OC[C@@H](O)COP(=O)(O)OCCN` [LysoPE16:0], the “Amount of each lipid species, mol percent in total phospholipid analysed” value is reported as 0.1468 mol percent and 0.08379 mol percent and 0.1077 mol percent and 0.1337 mol percent.
`CCCCCCCCCCCCCC/C=C\OC[C@@H](O)COP(=O)(O)OCCN` [LysoPE16:0p] was tested, and the “Amount of each lipid species, mol percent in total phospholipid analysed” value was 2.79 mol percent and 2.681 mol percent and 2.307 mol percent and 2.64 mol percent.

Same assay, conditions: Mfsd2a expressing HEK293 cells, 100 uM Alpha-linolenic fatty acid/BSA complex overnight; replicate columns
`CCCCCCCCCCCCCCCCCCOC[C@@H](O)COP(=O)([O-])OCC[N+](C)(C)C` [LysoPC18:0e] was tested, and the “Amount of lipid species, mol percent” value was 0.001528 mol percent and 0.001007 mol percent and 0.001383 mol percent and 0.001468 mol percent.
In the case of `CCCCCCCCCCCCCCCC(=O)OC[C@@H](O)COP(=O)(O)OCCN` [LysoPE16:0], the “Amount of lipid species, mol percent” value is reported as 0.1381 mol percent and 0.2428 mol percent and 0.2355 mol percent and 0.07619 mol percent.

Same assay, conditions: Mfsd2a expressing HEK293 cells, 100 uM Linoleic fatty acid/BSA complex overnight; replicate columns
For `CCCCCCCCCCCCCCCCCCOC[C@@H](O)COP(=O)([O-])OCC[N+](C)(C)C` [LysoPC18:0e], the “Amount of lipid species, mol percent” value was 0.00128 mol percent and 0.001885 mol percent and 0.001443 mol percent and 0.001726 mol percent.
`CCCCCCCCCCCCCCCC(=O)OC[C@@H](O)COP(=O)(O)OCCN` [LysoPE16:0] was tested, and the “Amount of lipid species, mol percent” value was 0.03967 mol percent and 0.1018 mol percent and 0.06313 mol percent and 0.02483 mol percent.

Same assay, conditions: Mfsd2a expressing HEK293 cells; 100 uM Docosahexaenoic acid/BSA complex overnight; MS; replicate columns
For `CCCCCCCCCCCCCCCCCCOC[C@@H](O)COP(=O)([O-])OCC[N+](C)(C)C` [LysoPC18:0e], the “Amount of each lipid species normalized to internal standard, mol percent in total phospholipid analysed” value was 0.002316 mol percent and 0.001944 mol percent and 0.002079 mol percent and 0.002217 mol percent.
With `CCCCCCCCCCCCCCCC(=O)OC[C@@H](O)COP(=O)(O)OCCN` [LysoPE16:0] the “Amount of each lipid species normalized to internal standard, mol percent in total phospholipid analysed” value was 0.08329 mol percent and 0.03847 mol percent and 0.07102 mol percent and 0.05717 mol percent.

Same assay, conditions: Mfsd2a expressing HEK293 cells; 100 uM Eicosapentaenoic acid/BSA complex overnight; MS; replicate columns
With `CCCCCCCCCCCCCCCCCCOC[C@@H](O)COP(=O)([O-])OCC[N+](C)(C)C` [LysoPC18:0e] the “Amount of each lipid species normalized to internal standard, mol percent in total phospholipid analysed” value was 0.002414 mol percent and 0.001699 mol percent and 0.001986 mol percent and 0.001832 mol percent.
For `CCCCCCCCCCCCCCCC(=O)OC[C@@H](O)COP(=O)(O)OCCN` [LysoPE16:0], the “Amount of each lipid species normalized to internal standard, mol percent in total phospholipid analysed” value was 0.09357 mol percent and 0.09693 mol percent and 0.09655 mol percent and 0.07626 mol percent.

Same assay, conditions: Mfsd2a expressing HEK293 cells; 100 uM Oleic fatty acid/BSA complex overnight; MS; replicate columns
`CCCCCCCCCCCCCCCCCCOC[C@@H](O)COP(=O)([O-])OCC[N+](C)(C)C` [LysoPC18:0e] was tested, and the “Amount of lipid species, mol percent” value was 0.002105 mol percent and 0.002254 mol percent and 0.001084 mol percent and 0.001841 mol percent.
For `CCCCCCCCCCCCCCCC(=O)OC[C@@H](O)COP(=O)(O)OCCN` [LysoPE16:0], the “Amount of lipid species, mol percent” value was 0.04601 mol percent and 0.01705 mol percent and 0.1151 mol percent and 0.08973 mol percent.
